Values joined by “and” are separate entries in the source; they are usually repeats but may differ in a detail not shown here. Equal entries are not always repeated. “Also recorded” adds a separate entry of the source.
How the values were obtained:
[1] = system: amphetamine-provoked hypermotility; test: inhibition of amphetamine-provoked hypermotility (psychosedative effect); assay type: in vivo; conditions: mice, amphetamine 3 mg/kg s.c. simultaneously, control = 100%
Protocol: This conclusion was based upon experimentation with mice by measuring their inhibition ability exerted on amphetamine-provoked hypermotility. the animals so tested were treated subcutaneously with 3 mg/kg of amphetamine (α-methyl-phenethylamine)while simultaneously administering the novel compound of formula (I) herein. A control test was run in which no psychosedative agent was used. The extent of hypermotility observed in the control group treated only with 3 mg/kg of amphetamine was regarded as 100%, and the percentage of inhibition observed in the test groups was related to this value.

[2] = acute toxicity, subcutaneous administration; conditions: mouse, in vivo, sc, mice
Protocol: The acute toxicities of the new compounds having the general formula (I) were measured on mice, under subcutaneous administration.

waking cats = test: behavioural effects in waking cats, compared with scopolamine; assay type: in vivo; conditions: for akinesia / standing position / behavioural effects in cats (first effects) / paralysis: s.c. 100 mg/kg isomer "b", 150 mg/kg scopolamine; for paralysis: 30 minutes after administration
Protocol: Accordingly, the effects of this "b" iosmer were compared directly with scopolamine by the use of a subcutaneous dosage of 100 mg/kg of the former and 150 mg/kg of the latter.

waking dogs = test: behavioural effects in waking dogs, compared with scopolamine; assay type: in vivo
[3] = system: analgesic effect of morphine; test: potentiation of the analgesic effect of morphine; conditions: in vivo
[4] = system: narcosis provoked by hexobarbital; test: potentiation of the narcosis provoked by hexobarbital; conditions: in vivo
[5] = anticholinergic / atropine-like activity; conditions: in vivo
[6] = well-known, cited from earlier work

For `CCOc1cc2c(cc1OCC)C1CC(=NO)C3CCCCC3N1CC2` (stereo not shown) [2-Hydroxyimino-3,4-cyclohexano-9,10-diethoxy-1,2,3,4,6,7,-hexahydro-11bH-benzo[a]quinolisine], the “Inhibition (of amphetamine-provoked hypermotility)” value (shortened to “Inhibition”) ([1]; 100 mg/kg s.c.) was 85% and the LD50 [2] was over 300 mg/kg.

In the case of `COc1cc2c(cc1OC)C1CC(=NO)C3CCCCC3N1CC2` (stereo not shown) [2-Hydroxyimino-3,4-cyclohexano-9,10-dimethoxy-1,2,3,4,6,7-he] [2-Hydroxyimino-3,4-cyclohexano-9,10-dimethoxy-1,2,3,4,6,7-hexahydro-11bH-benzo[a]quinolisine], the “Inhibition” value ([1]; 20 mg/kg s.c.) is reported as 66%, the “Inhibition” value ([1]; 100 mg/kg s.c.) is reported as 33% and the “akinesia / standing position” value (waking cats; cats) is reported as “more complete akinesia than scopolamine; also recorded: could not be brought to a standing position, their limbs immediately sliding apart although the carriage of their heads remained stationary”. For the same compound, the “behavioural effects in cats (first effects)” value (waking cats; cats) was “restlessness coupled with hallucinations of the same type and degree”, the paralysis (waking cats; cats) was “all animals were paralyzed” and the “response to capsaicine dropped into the eyes” value (waking cats; cats, s.c., capsaicine into eyes) was “long-lasting blepharospasm and mewing”. The “response to painful stimuli” value (waking cats; cats, s.c., painful stimuli) was “strong mewing response”, the “symptoms in waking cats compared with scopolamine” value (waking cats; waking cats) was “symptons similar to those os scopolamine” and the “symptoms in waking dogs compared with scopolamine” value (waking dogs) was “symptons similar to those os scopolamine”. For the same compound, the “awakening upon smell, slight noise and tactile stimuli” value (waking dogs; 10 mg/kg s.c.) was “not a narcotic effect, for the dogs were awakened readily upon smell stimuli related to food or slight noice and tactile stimuli”, the behavior after awakening (waking dogs; 10 mg/kg s.c.) was “normal behavior after awakening” and the “behavioural effects in waking dogs” value (waking dogs; 10 mg/kg s.c.) was “remarkable quietness and the animals fell asleep”. The “potentiation of the analgesic effect of morphine” value [3] was “did not potentiate the analgesic effect of morphine” and the “potentiation of the narcosis provoked by hexobarbital” value [4] was “nor did it potentiate the narcosis provoked by hexobarbital”.

In the case of `COc1cc2c(cc1OC)C1CC(=NO)C3CCCC3N1CC2` (stereo not shown) [2-Hydroxyimino-3,4-cyclopentano-9,10-dimethoxy-1,2,3,4,6,7-h] [2-Hydroxyimino-3,4-cyclopentano-9,10-dimethoxy-1,2,3,4,6,7-hexahydro-11bH-benzo[a]quinolisine], the “Inhibition” value ([1]; 100 mg/kg s.c.) is reported as 40% and 61%.

`COc1cc2c(cc1OC)C1CC(=NO)C3CCCC3N1CC2` (stereo not shown) [2-Hydroxyimino-3,4-cyclopentano-9,10-dimethoxy-1,2,3,4,6,7-hexahydro-11bH-benzo[a]quinolisine] gave an LD50 [2] of over 500 mg/kg.

In the case of `CN1[C@@H]2C[C@@H](OC(=O)[C@H](CO)c3ccccc3)C[C@H]1[C@@H]1O[C@@H]12` [scopolamine], the “akinesia / standing position” value (waking cats; cats) is reported as “remained in a standing position”, the “behavioural effects in cats (first effects)” value (waking cats; cats) is reported as “restlessness coupled with hallucinations of the same type and degree” and the paralysis (waking cats; cats) is reported as “all animals were paralyzed”. The anticholinerg activity [5] was “did not exert anticholinerg activity”, the atropine-like effect [5] was “marked atropine-like effect” and the therapeutic psychosedative effects ([6]; small dosages) was “therapeutic psychosedative effects”. The side effects [6] was “strong atropine-like parasympatholytic side effects”.

Source: patent US4052403A, “2-Hydroxyimino-1,2,3,4,6,7-hexahydro-11bH-benzo [a] quinolisine derivatives” (EGYT Gyogyszervegyeszeti Gyar, priority 1975, dated 1977)
